Measured values: US9862676B2, “Hydroxamic acid derivative or salt thereof” (TOYAMA CHEMICAL CO., LTD., priority 2013, dated 2018)
Values after ≈ are worked out from the molar mass of the structure shown.

Tests used:
[1] = molecular target: T1, hERG current (Homo sapiens, UniProt Q12809); assay: Evaluation of hERG inhibitory activity (whole cell clamp, HEK 293 cells); format: cell-based; conditions: up to 300 μmol/L; HEK 293 cells transfected with hERG gene, tail current 10 minutes after application
T1 construct: host or cells: HEK 293 cells
Method: HEK 293 cells (human embryo kidney 293 cells, Cytomyx LLC) transfected with hERG gene (human ether-a-go-go related gene) were used. The culture solution used was a MEM medium containing 10% fetal bovine serum and 1% nonessential amino acid and further supplemented with Geneticin at a concentration of 400 μg/mL. The cells were cultured in a carbonic acid gas incubator (37.0° C., 5% CO2).
The hERG current was measured by a whole cell clamp method. A glass cover with the cells for measurement attached thereto was placed in a dish and perfused at a rate of 2 mL/min with a perfusate (composition: 137 mmol/L NaCl, 4 mmol/L KCl, 10 mmol/L HEPES, 1.8 mmol/L CaCl2, 1 mmol/L MgCl2, 10 mmol/L glucose, pH 7.4). The inside temperature of the perfusion chamber was kept at 25° C. […]
Before the application and 10 minutes after the application, the peak value of tail current in the hERG current waveform was analyzed to calculate the ratio of the value 10 minutes after the application to the value before the application (relative value, %).

[2] = system: multidrug-resistant Pseudomonas aeruginosa clinical isolate (S-2838 strain); assay: Defense against mouse systemic infection using multidrug-resistant Pseudomonas aeruginosa; format: in vivo; conditions: male ICR mice, S-2838 strain i.p.
Method: The mice used were male ICR SPF mice (4 weeks old: 5 individuals per group). To prepare a bacterial inoculum solution, a multidrug-resistant Pseudomonas aeruginosa clinical isolate (S-2838 strain) cultured overnight at 37° C. on a Mueller-Hinton agar plate was cultured for 5 hours in a cation-adjusted Mueller-Hinton medium and then diluted 10-fold with a 10% mucin/phosphate buffer solution to prepare the inoculum solution. Infection was induced by the intraperitoneal inoculation of 0.5 mL of the inoculum solution (approximately 10^6 CFU/mouse) to each mouse. Each test compound was dissolved in a 10% hydroxypropylated β-cyclodextrin/2.5% mannitol aqueous solution and intravenously administered to the tail a single dose of 50 mg/kg at 1 hour after the infection. Three days after the infection, the number of survivors was recorded.

[3] = Test on inhibition of Vero cell growth (XTT); format: cell-based; conditions: African green monkey, Vero cells, 3 days culture, read-out: CC50 (concentration inhibiting 50% of cell growth)
Method: Each test compound was dissolved in dimethyl sulfoxide, adjusted to each concentration using E'MEM, and then dispensed at 0.1 mL/well to 96-well microplates. The Vero cell suspension was prepared at 3×10^4 cells/mL using E'MEM supplemented with 20% FBS, inoculated thereto at 0.1 mL/well, and cultured at 37° C. for 3 days under 5% CO2. At the completion of the culture, PBS supplemented with 1 mg/mL 2,3-bis-(2-methoxy-4-nitro-5-sulfophenyl)-5-((phenylamino)carbonyl)-2H-tetrazolium inner salt monosodium salt (XTT) and 25 μM phenazine methosulfate (PMS) was prepared and added thereto at 50 μL/well. Approximately 2 hours later, the absorbance at 450 nm was measured using a microplate reader.

[4] = system: Escherichia coli ATCC25922 strain; assay: Antibacterial activity, MIC by broth microdilution (CLSI); format: cell-based
Method: (§1) The minimum inhibitory concentration (MIC) was measured according to the CLSI (Clinical and Laboratory Standards Institute) standard method using a broth microdilution method given below. The bacteria used were a Pseudomonas aeruginosa ATCC27853 strain, an Escherichia coli ATCC25922 strain and a Klebsiella pneumoniae ATCC13883 strain. Test bacterial cells of each strain cultured overnight in a Mueller-Hinton agar medium were scraped off and suspended at the McFarland 0.5 standard, and this suspension was diluted 10-fold to prepare an inoculum solution. The inoculum solution (0.005 mL) was inoculated to a cation-adjusted Mueller-Hinton medium containing each test compound and cultured at 35° C. for 16 to 20 hours. The minimum drug concentration at which bacterial growth was not visible to the naked eye was defined as MIC.

[5] = system: Pseudomonas aeruginosa ATCC27853 strain; assay: as above; format: cell-based
Method: as §1

[6] = system: Klebsiella pneumoniae ATCC13883 strain; assay: as above; format: cell-based
Method: as §1

[7] = molecular target: T2, Pseudomonas aeruginosa LpxC enzyme (Pseudomonas aeruginosa, UniProt P47205); assay: Test to evaluate Pseudomonas aeruginosa LpxC enzyme inhibitory activity; format: biochemical
T2 construct: made in house; host or cells: Escherichia coli
T2 sequence (P47205 1-303): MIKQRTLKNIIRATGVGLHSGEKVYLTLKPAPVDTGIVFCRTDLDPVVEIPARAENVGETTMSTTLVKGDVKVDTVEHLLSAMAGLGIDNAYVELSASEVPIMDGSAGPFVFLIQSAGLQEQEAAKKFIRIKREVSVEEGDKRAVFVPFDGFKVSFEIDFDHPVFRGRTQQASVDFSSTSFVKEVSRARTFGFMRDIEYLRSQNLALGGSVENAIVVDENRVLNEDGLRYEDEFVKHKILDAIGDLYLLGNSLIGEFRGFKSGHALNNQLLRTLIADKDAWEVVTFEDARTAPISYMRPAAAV
Method: The Pseudomonas aeruginosa LpxC enzyme activity was measured by reacting LpxC with its substrate UDP-3-O—(R-3-hydroxydecanoyl)-N-acetylglucosamine and measuring the amount of the reaction product by the quantification of an amino group present in the product. This measurement was carried out according to a method described in, for example, International Publication No. WO 11/132712 pamphlet or a method similar thereto.
Specifically, to the Pseudomonas aeruginosa LpxC enzyme (which was obtained by preparing chromosomal DNA from Pseudomonas aeruginosa, obtaining the Pseudomonas aeruginosa LpxC gene by PCR (polymerase chain reaction) using LpxC-specific primers, and incorporating this gene into a vector, followed by gene expression using Escherichia coli), 20 μmol/L UDP-3-O—(R-3-hydroxydecanoyl)-N-acetylglucosamine (Wako Pure Chemical Industries, Ltd.) was added, and the mixture was incubated at 25° C. for 1 hour. This reaction was carried out in a 40 mmol/L HEPES buffer solution (pH 8.0) containing 0.02% Brij 35 and 80 μmol/L dithiothreitol. The reaction was terminated by the addition of 20% acetic acid (final concentration: 0.95%) to the reaction solution. Then, fluorescamine (final concentration: 1.6 mg/mL) dissolved in anhydrous dioxane was added thereto. The amount of the reaction product was detected at an excitation wavelength/fluorescence wavelength=390 nm/495 nm. Each test compound was allowed to coexist at various concentrations in the reaction to obtain an inhibition curve.

[8] = system: Chinese hamster lung fibroblasts (CHL/IU cells); assay: In vitro micronucleus test for genotoxicity; format: cell-based; conditions: dose of 1 mmol/L or lower, short-time treatment (with and without metabolic activation) and 30-hour treatment methods
Method: In order to examine the inducibility of the chromosomal aberrations by each test compound in cultured cells, the in vitro micronucleus test was carried out. This test was carried out by a short-time treatment method (in the presence and absence of a metabolic activation) and a 30-hour treatment method using Chinese hamster lung fibroblasts (CHL/IU cells). The concentration of the test compound was set to 1.00 mmol/L as the maximum dose with reference to the “Guidance on Genotoxicity Testing and Data Interpretation for Pharmaceuticals Intended for Human Use”. Specimens were observed as to doses of 0.25, 0.50 and 1.00 mmol/L. The cells were inoculated at 15×10^4 cells to a 60-mm dish (IWAKI) and precultured at 37° C. for 24 hours under 5% CO2 using a MEM medium (Sigma-Aldrich Co., Ltd.) containing 10% newborn calf serum (Sigma-Aldrich Co., Ltd.) and 50 U/mL-50 μg/mL Penicillin-Streptomycin (Sigma-Aldrich Co., Ltd.). After the completion of the preculture, a vehicle (DMSO) or each test compound was added thereto. In the short-time treatment method, 6 hours after the culture, the cells were washed with PBS(−) (Sigma-Aldrich Co., Ltd.), and then, the medium was replaced with a fresh medium, followed by further culture for 24 hours. In the 30-hour treatment method, after the addition of the test compound, the cells were cultured for 30 hours. […]

[9] = single intravenous dose 50 mg/kg 1 hour after infection

T1 sequence (Q12809 whole entry): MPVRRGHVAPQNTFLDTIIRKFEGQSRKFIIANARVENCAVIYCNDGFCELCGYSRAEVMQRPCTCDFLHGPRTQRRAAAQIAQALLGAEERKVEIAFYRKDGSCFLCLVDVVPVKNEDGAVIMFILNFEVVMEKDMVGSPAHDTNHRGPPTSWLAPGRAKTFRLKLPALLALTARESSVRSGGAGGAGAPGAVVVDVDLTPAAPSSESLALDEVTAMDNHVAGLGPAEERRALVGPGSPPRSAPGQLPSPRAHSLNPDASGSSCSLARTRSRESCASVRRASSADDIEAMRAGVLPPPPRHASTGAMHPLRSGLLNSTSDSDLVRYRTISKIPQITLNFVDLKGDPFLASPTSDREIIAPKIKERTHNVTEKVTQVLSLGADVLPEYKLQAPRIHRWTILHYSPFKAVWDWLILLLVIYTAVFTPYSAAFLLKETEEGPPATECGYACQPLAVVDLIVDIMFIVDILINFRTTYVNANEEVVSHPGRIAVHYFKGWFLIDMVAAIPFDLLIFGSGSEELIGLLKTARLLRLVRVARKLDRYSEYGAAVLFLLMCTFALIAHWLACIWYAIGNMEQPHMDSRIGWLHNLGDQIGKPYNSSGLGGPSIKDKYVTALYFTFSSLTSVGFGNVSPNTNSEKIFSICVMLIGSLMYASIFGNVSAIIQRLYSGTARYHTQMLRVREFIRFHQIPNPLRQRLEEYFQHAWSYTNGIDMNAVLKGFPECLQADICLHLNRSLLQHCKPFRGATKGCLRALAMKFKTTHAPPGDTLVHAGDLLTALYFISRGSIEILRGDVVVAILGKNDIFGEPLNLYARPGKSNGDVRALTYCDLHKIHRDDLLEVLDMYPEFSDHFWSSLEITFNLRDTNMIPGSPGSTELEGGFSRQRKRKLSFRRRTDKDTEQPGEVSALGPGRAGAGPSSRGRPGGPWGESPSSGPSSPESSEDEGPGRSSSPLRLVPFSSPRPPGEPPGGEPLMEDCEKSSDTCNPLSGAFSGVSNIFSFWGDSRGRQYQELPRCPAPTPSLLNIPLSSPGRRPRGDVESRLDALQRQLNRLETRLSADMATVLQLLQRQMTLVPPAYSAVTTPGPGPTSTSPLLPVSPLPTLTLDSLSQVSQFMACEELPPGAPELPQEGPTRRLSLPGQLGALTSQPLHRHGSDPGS

SMILES	hERG inhibitory activity [1]	mice surviving 3 days after the bacterial inoculation [2, 9] [%]	CC50 at 3 days [3] [µg/mL]	MIC [4] [µg/mL]	MIC [5] [µg/mL]	MIC [6] [µg/mL]	IC50 [7] [nM]	mice surviving 3 days after the bacterial inoculation ([2]; 25 mg/kg) [%]	in vitro micronucleus test result [8]
CNC(=O)[C@@](C)(C(=O)NO)N(C)C(=O)c1ccc(C#Cc2ccc([C@H](O)COC)cc2)cc1 [Example 23, (2S)—N-hydroxy-2-((4-((4-((1S)-1-hydroxy-2-methoxyethyl)phenyl)ethynyl)benzoyl)(methyl)amino)-N′,2-dimethyl-malonamide]	did not exhibit hERG inhibitory activity	100	≥ 100	0.25 (≈ 0.551 µM)	1 (≈ 2.21 µM)	1 (≈ 2.21 µM)	< 50	–	–
CNC(=O)[C@@](C)(C(=O)NO)N(C)C(=O)c1ccc(C#Cc2ccc([C@H](O)CO)cc2)cc1 [Example 20, (2S)-2-((4-((4-((1S)-1,2-dihydroxyethyl)phenyl)ethynyl)benzoyl)(methyl)amino)-N-hydroxy-N′,2-dimethyl-malonamide]	did not exhibit hERG inhibitory activity	100	≥ 100	–	1 (≈ 2.28 µM)	–	< 50	≥ 60	negative
